The values that follow come from ChEMBL document CHEMBL3758123, “Synthesis, biological evaluation and molecular modeling study of some new thiazolodiazepine analogs as CNS active agents” (Bioorg Med Chem Lett, 2016).

Each structure is given as a SMILES string. Activity calls are given as the source filed them. No cut-off for these calls is given here.

Data set [1] relates to Mus musculus. Nature of the data set: Anticonvulsant activity in Swiss albino mouse assessed as pentylenetetrazole induced onset of convulsion time at 200 mg/kg, ip administered for 20 mins followed by pentylenetetrazole challenge. Type of data set: functional.
The subject of data set [2] is Mus musculus. Nature of the data set: Anticonvulsant activity in Swiss albino mouse assessed as pentylenetetrazole induced convulsions frequency time at 200 mg/kg, ip administered for 20 mins followed by pentylenetetrazole challenge. In kind it is functional.
Data set [3] relates to Mus musculus. Nature of the data set: Toxicity in pentylenetetrazole induced Swiss albino mouse convulsion model assessed as time of death at 200 mg/kg, ip administered for 20 mins followed by pentylenetetrazole challenge. Type of data set: organism-based. Conditions: in vivo.
In data set [4] the test system is Mus musculus. Nature of the data set: Anticonvulsant activity in Swiss albino mouse assessed as picrotoxin-induced onset of convulsion time at 200 mg/kg, ip administered for 30 mins followed by picrotoxin challenge. In kind it is functional.
Data set [5] has as its system Mus musculus. Nature of the data set: Anticonvulsant activity in Swiss albino mouse assessed as picrotoxin-induced convulsions frequency time at 200 mg/kg, ip administered for 30 mins followed by picrotoxin challenge. Type of data set: functional.
The subject of data set [6] is Mus musculus. Nature of the data set: Toxicity in picrotoxin-induced Swiss albino mouse convulsion model assessed as time of death at 200 mg/kg, ip administered for 30 mins followed by picrotoxin challenge. Type of data set: organism-based. Conditions: in vivo, 0.5 h.
For data set [7], the system named is Mus musculus. Nature of the data set: Hypnotic activity in mouse assessed as quietness at 200 mg/kg, ip after 20 mins. Type of data set: functional, organism-based.
For data set [8], the system named is Mus musculus. In words: Hypnotic activity in mouse assessed as decrease in locomotors activity at 200 mg/kg, ip after 20 mins. Type of data set: functional, organism-based.
Data set [9] deals with Mus musculus. Nature of the data set: Hypnotic activity in mouse assessed as calmness at 200 mg/kg, ip after 20 mins. In kind it is functional, organism-based.
The test system of data set [10] is Mus musculus. Nature of the data set: Hypnotic activity in mouse assessed as muscle relaxation at 200 mg/kg, ip after 15 mins. Type of data set: functional, organism-based.
Data set [11] relates to Mus musculus. Nature of the data set: Anticonvulsant activity in Swiss albino mouse assessed as pentylenetetrazole induced onset of convulsion time at 100 mg/kg, ip administered for 20 mins followed by pentylenetetrazole challenge. Type of data set: functional.
The subject of data set [12] is Mus musculus. Nature of the data set: Anticonvulsant activity in Swiss albino mouse assessed as pentylenetetrazole induced convulsions frequency time at 100 mg/kg, ip administered for 20 mins followed by pentylenetetrazole challenge. In kind it is functional.
In data set [13] the test system is Mus musculus. Nature of the data set: Toxicity in pentylenetetrazole induced Swiss albino mouse convulsion model assessed as time of death at 100 mg/kg, ip administered for 20 mins followed by pentylenetetrazole challenge. Type of data set: organism-based. The settings on record: in vivo.
Data set [14] deals with Mus musculus. Nature of the data set: Anticonvulsant activity in Swiss albino mouse assessed as protection against pentylenetetrazole-induced seizure at 200 mg/kg, ip administered for 20 mins followed by pentylenetetrazole challenge. Type of data set: functional.
Data set [15] relates to Mus musculus. Nature of the data set: Anticonvulsant activity in Swiss albino mouse assessed as protection against maximal electroshock-induced seizures at 200 mg/kg, ip administered for 30 mins followed by electric shock treatment. Type of data set: functional. In general terms: The maximal electroshock test induces tonic seizures with an electrical stimulus.
The test system of data set [16] is Mus musculus. Nature of the data set: Protective index, ratio of TD50 for Swiss albino mouse assessed as motor performance to ED50 for protection against pentylenetetrazole-induced seizure in ip dosed Swiss albino mouse. In kind it is functional.
Data set [17] concerns Mus musculus. In words: Anticonvulsant activity in ip dosed Swiss albino mouse assessed as protection against maximal electroshock-induced seizures administered for 30 mins followed by electric shock treatment. The settings on record: 0.5 h. In kind it is functional.
The subject of data set [18] is Mus musculus. Nature of the data set: Protective index, ratio of TD50 for Swiss albino mouse assessed as motor performance to ED50 for protection against maximal electroshock-induced seizure in ip dosed Swiss albino mouse. Type of data set: functional.
Data set [19] relates to Mus musculus. Nature of the data set: Protective index, ratio of TD50 for Swiss albino mouse assessed as motor performance to ED50 for protection against picrotoxin-induced seizure in ip dosed Swiss albino mouse. In kind it is functional.
A short description of data set [20]: Therapeutic index, ratio of LD50 for ip dosed Swiss albino mouse to ED50 for protection against pentylenetetrazole induced seizure in ip dosed Swiss albino mouse. The settings on record: in vivo, read-out: Ratio LD50/ED50. Type of data set: organism-based.
The test system of data set [21] is Mus musculus. In words: Potency index, ratio of compound activity to sodium valproate activity against pentylenetetrazole-induced seizure in ip dosed Swiss albino mouse. Type of data set: functional.
Data set [22] deals with Mus musculus. Nature of the data set: Anticonvulsant activity in Swiss albino mouse assessed as protection against pentylenetetrazole-induced seizure at 100 mg/kg, ip after 20 mins. Type of data set: functional.
The test system of data set [23] is Mus musculus. In words: Anticonvulsant activity in Swiss albino mouse assessed as protection against maximal electroshock-induced seizures at 100 mg/kg, ip administered for 30 mins followed by electric shock treatment. In kind it is functional.
Data set [24] relates to Mus musculus. Nature of the data set: Hypnotic activity in mouse assessed as loss of righting reflex and sleep at 100 mg/kg, ip after 2 mins. Type of data set: functional, organism-based.
The test system of data set [25] is Mus musculus. Nature of the data set: Hypnotic activity in mouse assessed as decrease in locomotors activity at 100 mg/kg, ip after 20 mins. Type of data set: functional, organism-based.
The test system of data set [26] is Mus musculus. Nature of the data set: Hypnotic activity in mouse assessed as calmness at 100 mg/kg, ip after 20 mins. In kind it is functional, organism-based.
Data set [27] concerns Mus musculus. In words: Hypnotic activity in mouse assessed as loss of righting reflex and sleep at 200 mg/kg, ip after 20 mins. Type of data set: functional, organism-based.

As a reminder, the ED50 is the dose that gives a 50% effect, or the effect in half of the subjects.

On to `COc1ccc(/C=C2\CCN3C(C)=CSC3=NC2=O)cc1`, for which the Time is on record as 2.3 min in the data set with Mus musculus [1]; 1.9 min in the data set on Mus musculus [2]; 5.1 min in the data set on Mus musculus [3]; 11.3 min with Mus musculus [4]; 9.5 min in the data set with Mus musculus [5]; 20.7 min in the data set on Mus musculus [6]. In the data set with Mus musculus [7], the result was Active.
Take `CC1=CSC2=NC(=O)CCCN12`: the Time with Mus musculus [1] is given as 1.5 min; with Mus musculus [2], 3.1 min; in the data set on Mus musculus [3], 4.1 min; with Mus musculus [4], 13.9 min; with Mus musculus [5], 6.7 min; with Mus musculus [6], 18.5 min. Besides, in the data set on Mus musculus [7], the result was Active.
Turning to `CC1=CN2CC/C(=C\c3ccc(Br)cc3)C(=O)N=C2S1`, the Time with Mus musculus [1] came out at 1.2 min; with Mus musculus [2] it was 2.1 min; with Mus musculus [3] it was 2.6 min; with Mus musculus [4], 8 min; in the data set on Mus musculus [5], 6 min; in the data set with Mus musculus [6], 14.3 min.
Regarding `CCOC(=O)C1=C(C)N2CC/C(=C\c3ccc(Br)cc3)C(=O)N=C2S1`, the Time with Mus musculus [1] came to 7.3 min; in the data set with Mus musculus [2] it was 4.1 min; with Mus musculus [3], 8.4 min; with Mus musculus [4], 8.1 min; with Mus musculus [5] it was 6.1 min; in the data set with Mus musculus [6], 11.6 min. Moreover, the result with Mus musculus [8] was Active.
Turning to `COc1ccc(/C=C2\CCN3C=C(C)SC3=NC2=O)cc1`, the outcome in the data set on Mus musculus [9] was Active. Besides, the Time with Mus musculus [1] is given as 4.1 min; in the data set on Mus musculus [2] it was 5.3 min; in the data set with Mus musculus [3], 27.3 min; in the data set with Mus musculus [4], 10.1 min; with Mus musculus [5] it was 3 min; in the data set with Mus musculus [6] it was 8.1 min.
In the case of `CC1=C(Sc2ccccc2C(=O)O)SC2=NC(=O)CCCN21`, the Time is reported as 1.5 min in the data set on Mus musculus [1]; 2.8 min with Mus musculus [2]; 3.8 min in the data set with Mus musculus [3]; 7.8 min in the data set with Mus musculus [4]; 7.3 min in the data set on Mus musculus [5]; 12.3 min with Mus musculus [6]. In the data set on Mus musculus [8], the result was Active.
Regarding `CCOC(=O)C1=C(C)N2CCCC(=O)N=C2S1`, the result in the data set with Mus musculus [9], with Mus musculus [10] and with Mus musculus [8] was Active. The Time in the data set with Mus musculus [11] turned out to be 4.6 min; in the data set on Mus musculus [12], 2 min; in the data set with Mus musculus [13] it was 6.3 min. Moreover, the Activity with Mus musculus [14] and in the data set on Mus musculus [15] was 100% throughout. Also, the “Ratio TD50/ED50” value in the data set on Mus musculus [16] worked out at 1.57; with Mus musculus [18] it was 2.22; in the data set on Mus musculus [19], 1.35. For the same compound, the ED50 with Mus musculus [17] was 90 mg/kg. Besides, in [20], the selectivity ratio worked out at 5.28. In addition, in the data set on Mus musculus [21], the Ratio turned out to be 2.
On to `CC1=C(Br)SC2=NC(=O)CCCN21`, for which the Time in the data set with Mus musculus [4] is 13.5 min; with Mus musculus [5], 5 min; in the data set with Mus musculus [6] it was 23.1 min. The Activity with Mus musculus [22] and in the data set on Mus musculus [23] was 100% in each case. For the same compound, the “Ratio TD50/ED50” value came out at 1.51 in the data set with Mus musculus [16], 2.17 in the data set with Mus musculus [18] and 1.31 in the data set on Mus musculus [19]. The ED50 in the data set with Mus musculus [17] amounted to 78 mg/kg. Besides, in data set [20], the selectivity ratio was determined as 5.71. In the data set with Mus musculus [21], the Ratio is 4. Moreover, the result in the data set with Mus musculus [24], in the data set with Mus musculus [25], with Mus musculus [26] and in the data set with Mus musculus [27] was Active.
`CCOC(=O)C1=C(C)N2CC/C(=C\c3ccc(OC)cc3)C(=O)N=C2S1`: the Time is 2.2 min with Mus musculus [1]; 2.3 min in the data set with Mus musculus [2]; 3.7 min in the data set on Mus musculus [3]; 9.1 min in the data set on Mus musculus [4]; 11.1 min in the data set on Mus musculus [5]; 18.3 min in the data set on Mus musculus [6].
Consider `CC1=CSC2=NC(=O)/C(=C/c3ccc(Br)cc3)CCN12`, for which the Time is reported as 2.1 min in the data set on Mus musculus [1]; 2 min in the data set on Mus musculus [2]; 3.6 min in the data set on Mus musculus [3]; 12.5 min in the data set with Mus musculus [4]; 2.5 min with Mus musculus [5]; 19.5 min in the data set on Mus musculus [6]. The result in the data set on Mus musculus [7] was Active.
For the compound `CC1=CN2CCCC(=O)N=C2S1`, the Time in the data set on Mus musculus [1] is listed as 4.1 min; with Mus musculus [2], 3.1 min; in the data set with Mus musculus [3], 5.2 min; in the data set on Mus musculus [4], 7.1 min; in the data set with Mus musculus [5], 8.7 min; with Mus musculus [6], 10.1 min. For the same compound, the result with Mus musculus [7] was Active.
